In brackets after ≈: the same amount, converted by molar mass. Marks after values point to notes of the source that are not given here.
Columns and labels:
NDM-1 [1] = biological target: T1, NDM-1 (Klebsiella pneumoniae, UniProt C7C422); assay: Kinetic fluorescence-based in vitro assay with fluorocillin substrate (IC50); assay type: biochemical; settings: 30 min preincubation
T1 construct: made in house; host or cells: E. coli
Procedure: (§1) IC50 values were determined in a kinetic fluorescence-based in vitro assay as described previously. All compounds were preincubated with the recombinant protein for 30 min before addition of the fluorogenic substrate fluorocillin. , The inhibitory activity was also determined (expressed as the percentage of inhibition in the presence of 50 μM compound) using a spectrophotometric assay in which the hydrolysis of imipenem (the reporter substrate) was monitored (see Section for details).
(§2) The inhibitory activity of the compounds was determined using enzyme assays with recombinant NDM-1, VIM-1, VIM-2, IMP-1, and IMP-7. These enzymes were produced in E. coli and purified as previously described. , The fluorogenic substrate fluorocillin was synthesized according to the procedure described by Rukavishnikov et al. The assays were performed in 96-well format using black polystyrene plates (Corning, Corning, NY) at room temperature, and the measurements were carried out on the Tecan spectrophotometer Infinite F200 PRO (Tecan, Männedorf, Switzerland). The protein stock solutions were diluted in assay buffer (HEPES 50 mM, pH 7.5 containing 0.01%Triton X-100, buffer HX) to reach final concentrations of VIM-1–4 nM, IMP-7–0.1 nM; NDM-1–3 nM. Subsequently, 89 μL of the protein solution was mixed with 1 μL of the inhibitor diluted in DMSO (final DMSO concentration 1% at final assay volume of 100 μL) and incubated for 30 min. […] Negative controls were measured in the absence of enzyme (89 μL of assay buffer), whereas the positive controls were measured in the presence of enzyme and in the absence of inhibitors (1 μL of DMSO). Each measurement was performed in triplicate in three independent experiments. IC50 values were calculated using data obtained from measurements with at least eight different inhibitor concentrations, applying a sigmoidal dose–response (variable slope with four parameters) equation using GraphPad Prism 5 (GraphPad Software, La Jolla, CA) software. […] All assays were performed in at least in triplicate.

[2] = Chemical stability of the compounds; assay type: physicochemical
IMP-7 = IMP-7 (Pseudomonas aeruginosa, UniProt Q93AU3); assay: Kinetic fluorescence-based in vitro assay with fluorocillin substrate (IC50); assay type: biochemical; settings: 30 min preincubation
IMP-7, sequence (Q93AU3 entry or part of it): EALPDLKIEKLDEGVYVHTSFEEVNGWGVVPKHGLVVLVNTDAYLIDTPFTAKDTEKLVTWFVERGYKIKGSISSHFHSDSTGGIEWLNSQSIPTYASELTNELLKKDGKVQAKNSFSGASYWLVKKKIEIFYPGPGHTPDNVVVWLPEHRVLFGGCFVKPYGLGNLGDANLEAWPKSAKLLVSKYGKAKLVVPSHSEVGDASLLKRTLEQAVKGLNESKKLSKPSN
Procedure: as §1, §2

VIM-1 = biological target: T2, VIM-1 (Pseudomonas aeruginosa, UniProt A0A0F7KYQ8); assay: as above; assay type: biochemical
T2 construct: made in house; host or cells: E. coli
Procedure: as §1, §2

[3] = system: K. pneumoniae T2301 (bla NDM‑1 +); assay: Imipenem MIC, broth microdilution, with fixed concentration of compound; assay type: cell-based; settings: for imipenem MIC, K. pneumoniae T2301 (bla NDM‑1 +): compound at 128 μg/mL, median of three experiments
Procedure: (§3) In vitro antimicrobial susceptibility testing was performed according to established standards. […]. The strains used in the study were described elsewhere.

[4] = system: K. pneumoniae T2216 (bla VIM‑1 +); assay: as above; assay type: cell-based; settings: for imipenem MIC, K. pneumoniae T2216 (bla VIM‑1 +): compound at 128 μg/mL, median of three experiments
Procedure: (§4) In vitro antimicrobial susceptibility testing was performed according to established standards. […] The strains used in the study were described elsewhere.

[5] = system: P. aeruginosa T2325 (bla IMP‑1 +); assay: as above; assay type: cell-based; settings: for imipenem MIC, P. aeruginosa T2325 (bla IMP‑1 +): compound at 128 μg/mL, median of three experiments
Procedure: as §4

NDM-1 [6] = biological target: T1, NDM-1; assay: Spectrophotometric direct competition assay, imipenem hydrolysis (reporter substrate); assay type: biochemical; settings: for inhibition at 50 µM: read-out: percentage of inhibition NDM-1
Procedure: as §1, §2

[7] = system: S. marcescens SI-1591 (bla VIM‑2 +); assay: microbe, parasite or virus in culture; assay type: cell-based; settings: for imipenem MIC, S. marcescens SI-1591 (bla VIM‑2 +): compound at 32 μg/mL, median of three experiments
Procedure: as §4

[8] = system: E. coli SI-G001 (bla NDM‑4 +); assay type: cell-based; settings: compound at 32 μg/mL; median of three experiments
Procedure: as §4

[9] = system: E. coli SI–N003 (bla NDM‑7 +); assay type: cell-based; settings: compound at 32 μg/mL; median of three experiments
Procedure: as §4

[10] = biological target: T3, human angiotensin-converting enzyme 1 (ACE-1) (Homo sapiens, UniProt P12821); assay: ACE Activity Assay Kit, fluorogenic substrate; assay type: biochemical; settings: 50 μM inhibitor
T3 construct: purchased Sigma-Aldrich CS0002
T3 sequence (P12821 30-1306): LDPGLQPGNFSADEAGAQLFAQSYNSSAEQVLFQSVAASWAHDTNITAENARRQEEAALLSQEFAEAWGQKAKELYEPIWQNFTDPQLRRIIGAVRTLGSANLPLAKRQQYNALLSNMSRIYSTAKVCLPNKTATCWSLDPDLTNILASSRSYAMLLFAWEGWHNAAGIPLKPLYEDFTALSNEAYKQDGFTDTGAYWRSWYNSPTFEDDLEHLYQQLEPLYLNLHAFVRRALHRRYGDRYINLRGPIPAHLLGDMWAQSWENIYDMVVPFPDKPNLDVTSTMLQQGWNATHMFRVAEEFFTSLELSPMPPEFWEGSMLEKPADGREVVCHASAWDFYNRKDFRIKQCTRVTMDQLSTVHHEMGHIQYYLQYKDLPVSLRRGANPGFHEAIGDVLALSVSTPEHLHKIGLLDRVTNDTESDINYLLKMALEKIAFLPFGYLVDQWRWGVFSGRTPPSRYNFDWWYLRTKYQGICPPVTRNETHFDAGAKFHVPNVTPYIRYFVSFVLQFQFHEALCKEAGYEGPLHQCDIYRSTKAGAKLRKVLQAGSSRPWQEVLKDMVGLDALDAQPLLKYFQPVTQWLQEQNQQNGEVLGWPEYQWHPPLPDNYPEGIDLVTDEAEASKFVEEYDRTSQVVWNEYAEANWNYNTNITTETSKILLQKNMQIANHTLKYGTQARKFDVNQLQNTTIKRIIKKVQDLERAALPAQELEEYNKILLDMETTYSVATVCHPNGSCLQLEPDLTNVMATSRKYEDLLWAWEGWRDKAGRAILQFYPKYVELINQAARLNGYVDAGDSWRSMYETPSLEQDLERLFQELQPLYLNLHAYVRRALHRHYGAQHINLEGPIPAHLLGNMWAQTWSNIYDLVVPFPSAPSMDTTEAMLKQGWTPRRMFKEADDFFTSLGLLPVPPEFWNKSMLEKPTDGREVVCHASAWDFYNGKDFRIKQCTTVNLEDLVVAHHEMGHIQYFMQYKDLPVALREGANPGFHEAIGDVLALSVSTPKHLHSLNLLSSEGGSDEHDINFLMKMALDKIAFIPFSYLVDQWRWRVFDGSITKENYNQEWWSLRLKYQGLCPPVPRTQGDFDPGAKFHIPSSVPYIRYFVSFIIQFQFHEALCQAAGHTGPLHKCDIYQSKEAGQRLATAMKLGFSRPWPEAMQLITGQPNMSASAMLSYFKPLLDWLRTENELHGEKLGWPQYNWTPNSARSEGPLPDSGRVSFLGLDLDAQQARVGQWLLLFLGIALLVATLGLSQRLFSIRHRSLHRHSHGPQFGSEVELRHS
Procedure: To assess the selectivity of the compounds, their inhibitory activity on human angiotensin-converting enzyme 1 (ACE-1) was performed using the ACE Activity Assay Kit (Sigma-Aldrich cat. No. CS0002). […] Captopril (racemic mixture, D- and L-stereoisomers) was used as control in these experiments.

[11] = system: E. coli SI-M001 (bla NDM‑1 +); assay: Imipenem MIC, broth microdilution, with fixed concentration of compound; assay type: cell-based; settings: for imipenem MIC, E. coli SI-M001 (bla NDM‑1 +): compound at 32 μg/mL, median of three experiments
Procedure: as §3

IMP-1 = biological target: T4, IMP-1 (Serratia marcescens, UniProt P52699); assay: biochemical; settings: for inhibition at 50 µM: read-out: percentage of inhibition IMP-1
T4 construct: made in house; host or cells: E. coli
T4 sequence (P52699 19-246, looked up, species assumed): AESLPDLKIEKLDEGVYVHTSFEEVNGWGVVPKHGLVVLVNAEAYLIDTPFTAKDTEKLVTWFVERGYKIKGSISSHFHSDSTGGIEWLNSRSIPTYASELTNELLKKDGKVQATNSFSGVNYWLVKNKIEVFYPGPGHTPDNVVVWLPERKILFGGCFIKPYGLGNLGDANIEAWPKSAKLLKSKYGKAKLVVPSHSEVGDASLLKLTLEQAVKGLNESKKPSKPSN
Procedure: as §1, §2

VIM-2 [12] = biological target: T5, VIM-2 (Escherichia coli, UniProt Q5U7L7); assay: biochemical; settings: read-out: percentage of inhibition VIM-2
T5 construct: made in house; host or cells: E. coli
Procedure: as §1, §2

[13] = system: A. baumannii AC-54/97 (bla IMP‑2 +); assay: Imipenem MIC, broth microdilution, with fixed concentration of compound; assay type: cell-based; settings: for imipenem MIC, A. baumannii AC-54/97 (bla IMP‑2 +): compound at 32 μg/mL, median of three experiments
Procedure: as §4

[14] = system: K. pneumoniae VA-416/02 (bla VIM‑4 +); assay: as above; assay type: cell-based; settings: for imipenem MIC, K. pneumoniae VA-416/02 (bla VIM‑4 +): compound at 32 μg/mL, median of three experiments
Procedure: as §4

[15] = system: K. pneumoniae 7023 (bla VIM‑1 +); assay: as above; assay type: cell-based; settings: for imipenem MIC, K. pneumoniae 7023 (bla VIM‑1 +): compound at 32 μg/mL, median of three experiments
Procedure: as §4

VIM-2 [16] = biological target: T5, VIM-2; assay: biochemical; settings: competitive model, imipenem reporter substrate; read-out: K i VIM-2

T1 sequence (C7C422 29-270 limits assumed): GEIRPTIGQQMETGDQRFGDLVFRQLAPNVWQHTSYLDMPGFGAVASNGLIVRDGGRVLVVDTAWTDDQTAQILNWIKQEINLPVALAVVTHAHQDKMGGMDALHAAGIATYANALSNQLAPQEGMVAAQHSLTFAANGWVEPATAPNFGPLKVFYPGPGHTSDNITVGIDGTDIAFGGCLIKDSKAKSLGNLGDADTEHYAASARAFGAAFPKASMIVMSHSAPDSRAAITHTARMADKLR

SMILES | IC50 (NDM-1 [1]) [µM] | inhibition at 50 µM (NDM-1 [6]) [%] | imipenem MIC, S. marcescens SI-1591 (bla VIM‑2 +) [7] [µg/mL] | imipenem MIC, E. coli SI-G001 (bla NDM‑4 +) [8] [µg/mL] | imipenem MIC, E. coli SI–N003 (bla NDM‑7 +) [9] [µg/mL] | imipenem MIC, E. coli SI-M001 (bla NDM‑1 +) [11] [µg/mL] | inhibition at 50 µM (IMP-1) [%] | inhibition at 50 µM (VIM-2 [12]) [%] | imipenem MIC, A. baumannii AC-54/97 (bla IMP‑2 +) [13] [µg/mL] | imipenem MIC, K. pneumoniae VA-416/02 (bla VIM‑4 +) [14] [µg/mL] | imipenem MIC, K. pneumoniae 7023 (bla VIM‑1 +) [15] [µg/mL] | also measured
C[C@H](CS)C(=O)N1c2ccccc2C(C)(C)[C@H]1C(N)=O [6a, (S)-1-((S)-3-Mercapto-2-methylpropanoyl)-3,3-dimethylindoline-2-carboxamide] | 17.9 | – | – | – | – | – | – | – | – | – | – | chemical stability (in words) [2]: not very stable
C[C@H](CS)C(=O)N1c2ccccc2C(C)(C)[C@@H]1C(N)=O [6b, (R)-1-((S)-3-Mercapto-2-methylpropanoyl)-3,3-dimethylindoline-2-carboxamide] | 4.1 | – | – | – | – | – | – | – | – | – | – | IC50 (IMP-7): 1.8 µM; IC50 (VIM-1): 0.7 µM; imipenem MIC, K. pneumoniae T2301 (bla NDM‑1 +) [3]: 16 ^c μg/mL; imipenem MIC, K. pneumoniae T2216 (bla VIM‑1 +) [4]: 4 ^c μg/mL; imipenem MIC, P. aeruginosa T2325 (bla IMP‑1 +) [5]: 64 ^c μg/mL; chemical stability (in words) [2]: lower chemical stability
CCC1(CC)c2ccccc2N(C(=O)[C@H](C)CS)[C@@H]1C(N)=O [6c, (S)-3,3-Diethyl-1-((S)-3-mercapto-2-methylpropanoyl)indoline-2-carboxamide] | 8.4 | 81 | 8 | 64 | 64 | 64 | 66 | 96 | 128 | 128 | 128 | Ki (NDM-1 [6]; competitive model, imipenem reporter substrate, read-out: K i NDM-1): 4.5 ± 0.7 µM; inhibition at 50 µM [10]: < 5%; Ki (IMP-1; competitive model, imipenem reporter substrate, read-out: K i IMP-1): 4.9 ± 0.3 µM; Ki (VIM-2 [16]): 0.16 ± 0.01 µM
C[C@H](CS)C(=O)N1c2ccccc2C(C)(C)[C@H]1C(=O)NCC(=O)O [7a, ((S)-1-((S)-3-Mercapto-2-methylpropanoyl)-3,3-dimethylindoline-2-carbonyl)glycine] | 40 | 28 | 8 | 64 | 64 | 64 | ≤ 10 | 38 | 128 | 128 | 128 | –
C[C@H](CS)C(=O)N1c2ccccc2C(C)(C)[C@@H]1C(=O)NCC(=O)O [7b, ((R)-1-((S)-3-Mercapto-2-methylpropanoyl)-3,3-dimethylindoline-2-carbonyl)glycine] | 8 | 74 | 16 | 64 | 64 | 64 | 13 | 58 | 128 | 128 | 128 | IC50 (IMP-7): 8.6 µM; IC50 (VIM-1): 7.4 µM; imipenem MIC, K. pneumoniae T2301 (bla NDM‑1 +) [3]: 8 ^c μg/mL; imipenem MIC, K. pneumoniae T2216 (bla VIM‑1 +) [4]: 4 ^c μg/mL; imipenem MIC, P. aeruginosa T2325 (bla IMP‑1 +) [5]: 32 ^c μg/mL
CCC1(CC)c2ccccc2N(C(=O)[C@H](C)CS)[C@@H]1C(=O)NCC(=O)O [7c, ((S)-3,3-Diethyl-1-((S)-3-mercapto-2-methylpropanoyl)indoline-2-carbonyl)glycine] | 41 | 43 | 16 | 64 | 64 | 64 | 27 | 55 | 128 | 128 | 128 | –
CCC1(CC)c2ccccc2N(C(=O)[C@H](C)CS)[C@H]1C(=O)NCC(=O)O [7d, ((R)-3,3-Diethyl-1-((S)-3-mercapto-2-methylpropanoyl)indoline-2-carbonyl)glycine] | 10 | 67 | 16 | 64 | 64 | 64 | 17 | 69 | 128 | 128 | 128 | –
CCC1(CC)c2ccccc2N(C(=O)[C@H](C)CSC(C)=O)[C@H]1C(N)=O [(S,R′)-14b, ((S)-3-((R)-2-Carbamoyl-3,3-diethylindolin-1-yl)-2-methyl-3-oxopropyl)ethanethioate] | – | ≤ 10 | 8 | 64 | 64 | 32 | ≤ 10 | 15 | 128 | 128 | 64 | –
CC(=O)SC[C@@H](C)C(=O)N1c2ccccc2C2(CCCCC2)[C@H]1C(N)=O [(S,S′)-14c, ((S)-3-((S)-2′-Carbamoylspiro[cyclohexane-1,3′-indolin]-1′-yl)-2-methyl-3-oxopropyl)ethanethioate] | – | ≤ 10 | 8 | 32 | 32 | 16 | ≤ 10 | 17 | 128 | 128 | 64 | –
C[C@H](CS)C(=O)N1CCC[C@@H]1C(=O)O [D-captopril, reference compound] | – | 86 | – | – | – | – | – | – | – | – | – | –
C[C@H](CS)C(=O)N1CCC[C@H]1C(=O)O [L-captopril, reference compound] | – | 76 | – | – | – | – | – | – | – | – | – | –
C[C@@H](O)[C@H]1C(=O)N2C(C(=O)O)=C(SCCN=CN)C[C@H]12 [imipenem, reference compound] | – | – | – | – | – | – | – | – | – | – | – | MIC ([7]; Serratia marcescens, read-out: imipenem MIC, S. marcescens SI-1591 (bla VIM‑2 +)): 16 µg/mL (≈ 53.4 µM); MIC ([11]; Escherichia coli, imipenem alone (compound: None)): 64 µg/mL (≈ 214 µM); MIC ([3]; Klebsiella pneumoniae, imipenem alone (compound: None)): 16 µg/mL (≈ 53.4 µM); MIC ([13]; Acinetobacter baumannii, read-out: imipenem MIC, A. baumannii AC-54/97 (bla IMP‑2 +)): 128 µg/mL (≈ 428 µM); MIC ([14]; Klebsiella pneumoniae, read-out: imipenem MIC, K. pneumoniae VA-416/02 (bla VIM‑4 +)): 128 µg/mL (≈ 428 µM); MIC ([15]; Klebsiella pneumoniae, read-out: imipenem MIC, K. pneumoniae 7023 (bla VIM‑1 +)): 128 µg/mL (≈ 428 µM); MIC ([4]; Klebsiella pneumoniae, read-out: imipenem MIC, K. pneumoniae T2216 (bla VIM‑1 +)): 4 µg/mL (≈ 13.4 µM); MIC ([5]; Pseudomonas aeruginosa, read-out: imipenem MIC, P. aeruginosa T2325 (bla IMP‑1 +)): 64 µg/mL (≈ 214 µM)
